Laboratory results published in ChEMBL document CHEMBL1150330, “Muscarinic antagonists with multiple stereocenters: Synthesis, affinity profile and functional activity of isomeric 1-methyl-2-(2,2-alkylaryl-1,3-oxathiolan-5-yl)pyrrolidine sulfoxide derivatives” (Bioorg Med Chem, 2008).

Tests used:
[1] = target: T1, Muscarinic acetylcholine receptor M1 (Homo sapiens, UniProt P11229); experiment: Displacement of [3H]NMS from human muscarinic M1 receptor expressed in CHO cells; assay type: cell-based
T1 sequence (P11229 whole entry): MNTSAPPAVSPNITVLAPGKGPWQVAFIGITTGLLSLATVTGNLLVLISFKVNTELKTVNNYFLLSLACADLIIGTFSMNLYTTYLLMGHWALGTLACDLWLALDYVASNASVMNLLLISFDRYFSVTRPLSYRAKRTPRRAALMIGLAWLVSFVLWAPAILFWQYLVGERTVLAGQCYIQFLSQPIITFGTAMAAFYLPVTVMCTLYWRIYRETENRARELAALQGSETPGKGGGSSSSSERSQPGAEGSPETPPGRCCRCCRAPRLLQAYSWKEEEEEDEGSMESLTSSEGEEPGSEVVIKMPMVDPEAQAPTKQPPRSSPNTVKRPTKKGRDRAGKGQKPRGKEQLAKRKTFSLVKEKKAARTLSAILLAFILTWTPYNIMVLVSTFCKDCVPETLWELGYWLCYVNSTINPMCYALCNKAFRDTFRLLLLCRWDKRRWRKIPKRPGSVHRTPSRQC

[2] = target: T2, Muscarinic acetylcholine receptor M2 (Homo sapiens, UniProt P08172); experiment: Displacement of [3H]NMS from human muscarinic M2 receptor expressed in CHO cells; assay type: cell-based
T2 sequence (P08172 whole entry): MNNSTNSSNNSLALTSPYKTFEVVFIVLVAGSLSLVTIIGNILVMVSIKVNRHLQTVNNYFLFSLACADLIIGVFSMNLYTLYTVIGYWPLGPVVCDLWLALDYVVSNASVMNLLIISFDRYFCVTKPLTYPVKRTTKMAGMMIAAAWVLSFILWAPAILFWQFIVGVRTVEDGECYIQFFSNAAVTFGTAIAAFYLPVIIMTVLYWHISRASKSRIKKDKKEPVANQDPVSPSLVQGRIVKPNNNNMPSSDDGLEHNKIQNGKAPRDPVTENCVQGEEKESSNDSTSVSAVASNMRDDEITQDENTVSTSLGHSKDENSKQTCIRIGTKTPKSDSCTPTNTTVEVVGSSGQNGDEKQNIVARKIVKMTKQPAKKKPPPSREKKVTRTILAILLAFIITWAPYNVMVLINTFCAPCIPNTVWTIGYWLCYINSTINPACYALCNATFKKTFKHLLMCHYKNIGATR

[3] = target: Muscarinic acetylcholine receptor M3 (Homo sapiens, UniProt P20309); experiment: Displacement of [3H]NMS from human muscarinic M3 receptor expressed in CHO cells; assay type: cell-based
Chain of Muscarinic acetylcholine receptor M3 (P20309 whole entry): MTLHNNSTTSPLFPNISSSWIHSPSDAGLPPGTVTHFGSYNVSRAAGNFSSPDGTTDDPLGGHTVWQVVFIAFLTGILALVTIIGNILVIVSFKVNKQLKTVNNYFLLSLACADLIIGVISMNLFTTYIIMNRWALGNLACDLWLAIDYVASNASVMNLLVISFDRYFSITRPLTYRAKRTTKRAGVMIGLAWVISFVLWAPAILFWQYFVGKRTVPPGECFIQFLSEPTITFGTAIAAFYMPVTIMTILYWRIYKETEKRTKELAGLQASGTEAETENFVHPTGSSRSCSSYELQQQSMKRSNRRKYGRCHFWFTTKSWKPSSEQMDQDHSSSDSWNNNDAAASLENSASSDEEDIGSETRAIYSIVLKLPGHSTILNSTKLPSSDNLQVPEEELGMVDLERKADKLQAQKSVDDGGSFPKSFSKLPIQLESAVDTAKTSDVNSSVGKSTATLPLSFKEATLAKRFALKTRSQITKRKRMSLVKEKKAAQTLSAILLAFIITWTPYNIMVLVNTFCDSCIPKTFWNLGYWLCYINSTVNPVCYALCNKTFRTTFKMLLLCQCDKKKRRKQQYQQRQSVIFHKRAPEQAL

[4] = target: T3, Muscarinic acetylcholine receptor M4 (Homo sapiens, UniProt P08173); experiment: Displacement of [3H]NMS from human muscarinic M4 receptor expressed in CHO cells; assay type: cell-based
T3 sequence (P08173 whole entry): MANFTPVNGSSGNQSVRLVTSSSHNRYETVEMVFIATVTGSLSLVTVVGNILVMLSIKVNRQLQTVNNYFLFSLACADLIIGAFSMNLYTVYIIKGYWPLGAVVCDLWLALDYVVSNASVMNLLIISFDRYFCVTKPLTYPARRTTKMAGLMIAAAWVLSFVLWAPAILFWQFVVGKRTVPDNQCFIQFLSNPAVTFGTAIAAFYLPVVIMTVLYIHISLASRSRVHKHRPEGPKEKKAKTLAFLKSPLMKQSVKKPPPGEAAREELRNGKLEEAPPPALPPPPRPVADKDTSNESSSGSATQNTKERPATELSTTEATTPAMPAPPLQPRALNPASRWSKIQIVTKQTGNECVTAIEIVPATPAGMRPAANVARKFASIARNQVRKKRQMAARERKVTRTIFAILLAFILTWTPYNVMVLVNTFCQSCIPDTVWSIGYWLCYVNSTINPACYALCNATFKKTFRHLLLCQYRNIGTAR

[5] = target: T4, Muscarinic acetylcholine receptor M5 (Homo sapiens, UniProt P08912); experiment: Displacement of [3H]NMS from human muscarinic M5 receptor expressed in CHO cells; assay type: cell-based
T4 sequence (P08912 whole entry): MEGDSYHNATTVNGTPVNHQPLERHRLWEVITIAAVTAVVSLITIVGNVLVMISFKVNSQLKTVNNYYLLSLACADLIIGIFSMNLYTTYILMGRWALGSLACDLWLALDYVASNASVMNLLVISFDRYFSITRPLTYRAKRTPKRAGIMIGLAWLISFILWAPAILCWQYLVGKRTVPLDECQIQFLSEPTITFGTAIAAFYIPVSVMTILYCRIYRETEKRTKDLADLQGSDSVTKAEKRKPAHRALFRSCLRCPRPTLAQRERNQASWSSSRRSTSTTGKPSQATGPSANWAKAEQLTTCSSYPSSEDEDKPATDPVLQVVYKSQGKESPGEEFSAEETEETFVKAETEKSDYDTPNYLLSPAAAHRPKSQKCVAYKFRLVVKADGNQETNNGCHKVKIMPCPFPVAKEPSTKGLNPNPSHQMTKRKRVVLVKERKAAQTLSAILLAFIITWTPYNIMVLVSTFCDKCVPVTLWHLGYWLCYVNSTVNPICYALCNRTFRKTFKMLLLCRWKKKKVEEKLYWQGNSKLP

[6] = Antagonist activity against muscarinic M2 receptor in guinea pig atria assessed as effect on electrically-stimulated atria; assay type: functional, Cavia porcellus
[7] = Antagonist activity against muscarinic M3 receptor in guinea pig ileum assessed as effect on ileum tension; assay type: functional, Cavia porcellus
[8] = Antagonist activity against muscarinic M4 receptor in guinea pig lung strip assessed as effect on electrically-stimulated contraction; assay type: functional, Cavia porcellus

Row | Structure (SMILES) | Ki [1] [nM] | Ki [2] [nM] | Ki [3] [nM] | Ki [4] [nM] | Ki [5] [nM] | pKb [6] | pKb [7] | pKb [8]
1 | CN1CCC[C@H]1[C@H]1C[S+]([O-])[C@](c2ccccc2)(C2CCCCC2)O1 (stereo in doubt; (-)-8) | 537 | 1450 | 692 | 1510 | 759 | 5.71 | 5.95 | 5.19
2 | CN1CCC[C@H]1[C@H]1C[S+]([O-])C(c2ccccc2)(c2ccccc2)O1 (stereo in doubt; (-)-5) | 145 | 219 | 302 | 407 | 229 | 6.42 | 6.99 | <5
3 | CN1CCC[C@@H]1[C@@H]1C[S+]([O-])[C@](c2ccccc2)(C2CCCCC2)O1 (stereo in doubt; (-)-7) | 14.1 | 4.17 | 42.7 | 42.7 | 58.9 | 9.37 | 8.71 | 6.92
4 | C[N+]1(C)CCC[C@H]1[C@H]1C[S+]([O-])[C@](c2ccccc2)(C2CCCCC2)O1.[I-] (stereo in doubt; (-)-15) | 19.5 | 57.5 | 77.6 | 112 | 41.7 | 6.92 | 7.9 | 5.64
5 | CN1CCC[C@H]1[C@H]1C[S+]([O-])C(c2ccccc2)(c2ccccc2)O1 (stereo in doubt; (+)-4) | 110 | 562 | 468 | 1020 | 513 | 6 | 6.55 | 5.29
6 | CN1CCC[C@H]1[C@H]1C[S+]([O-])[C@@](c2ccccc2)(C2CCCCC2)O1 (stereo in doubt; (+)-6) | 155 | 1020 | 389 | 447 | 525 | 5.48 | 6.43 | <5
7 | CN1CCC[C@@H]1[C@@H]1C[S+]([O-])C(c2ccccc2)(c2ccccc2)O1 (stereo in doubt; (+)-5) | 110 | 39.8 | 282 | 316 | 339 | 7.1 | 7.17 | 5.63
8 | C[N+]1(C)CCC[C@H]1[C@H]1C[S+]([O-])C(c2ccccc2)(c2ccccc2)O1.[I-] (stereo in doubt; (-)-11) | 15.8 | 41.7 | 51.3 | 105 | 30.2 | 6.93 | 7.89 | <5
9 | C[N+]1(C)CCC[C@@H]1[C@@H]1C[S+]([O-])[C@](c2ccccc2)(C2CCCCC2)O1.[I-] (stereo in doubt; (-)-12) | 56.2 | 85.1 | 288 | 316 | 195 | 7.91 | 7.11 | 7.45
10 | C[N+]1(C)CCC[C@H]1[C@H]1C[S+]([O-])C(c2ccccc2)(c2ccccc2)O1.[I-] (stereo in doubt; (+)-10) | 29.5 | 141 | 209 | 209 | 91.2 | 7.2 | 6.95 | 5.54

More lines, in order of falling Ki [1], values ahead:

Row | Ki [1] [nM] | Ki [2] [nM] | Ki [3] [nM] | Ki [4] [nM] | Ki [5] [nM] | Structure (SMILES) | pKb [6] | pKb [7] | pKb [8]
11 | 324 | 195 | 417 | 1170 | 813 | C[N+]1(C)CCC[C@@H]1[C@@H]1C[S+]([O-])C(c2ccccc2)(c2ccccc2)O1.[I-] (stereo in doubt; (+)-11) | 7 | 7.62 | 5.25
12 | 117 | 95.5 | 324 | 468 | 302 | C[N+]1(C)CCC[C@@H]1[C@@H]1C[S+]([O-])[C@](c2ccccc2)(C2CCCCC2)O1.[I-] (stereo in doubt; (-)-13) | 7.51 | 7.22 | 6.06
13 | 107 | 38 | 200 | 257 | 288 | CN1CCC[C@@H]1[C@@H]1C[S+]([O-])[C@@](c2ccccc2)(C2CCCCC2)O1 (stereo in doubt; (+)-9) | 7.72 | 7.59 | 6.16
14 | 93.3 | 77.6 | 162 | 302 | 224 | C[N+]1(C)CCC[C@@H]1[C@@H]1C[S+]([O-])[C@@](c2ccccc2)(C2CCCCC2)O1.[I-] (stereo in doubt; (+)-15) | 6.97 | 7.1 | 6.48
15 | 93.3 | 302 | 347 | 501 | 380 | CN1CCC[C@H]1[C@H]1C[S+]([O-])[C@](c2ccccc2)(C2CCCCC2)O1 (stereo in doubt; (-)-9) | 6.59 | 7.1 | 5.13
16 | 53.7 | 69.2 | 263 | 282 | 182 | C[N+]1(C)CCC[C@@H]1[C@@H]1C[S+]([O-])C(c2ccccc2)(c2ccccc2)O1.[I-] (stereo in doubt; (-)-10) | 7.3 | 7.5 | 6.53
17 | 38 | 66.1 | 24 | 93.3 | 30.2 | CN1CCC[C@@H]1[C@@H]1C[S+]([O-])[C@@](c2ccccc2)(C2CCCCC2)O1 (stereo in doubt; (+)-8) | 7.05 | 7.71 | <5
18 | 21.9 | 74.1 | 34.7 | 95.5 | 141 | C[N+](C)(C)C[C@@H]1C[S@](=O)[C@@](c2ccccc2)(C2CCCCC2)O1.[I-] | 7.52 | 7.64 | 5.24
19 | 12 | 70.8 | 26.9 | 58.9 | 23.4 | C[N+]1(C)CCC[C@H]1[C@H]1C[S+]([O-])[C@@](c2ccccc2)(C2CCCCC2)O1.[I-] (stereo in doubt; (+)-12) | 6.57 | 7.03 | 5.41
20 | 10 | 64.6 | 18.2 | 33.1 | 25.1 | CN1CCC[C@H]1[C@H]1C[S+]([O-])[C@@](c2ccccc2)(C2CCCCC2)O1 (stereo in doubt; (+)-7) | 7.56 | 7.96 | 5.2
